Data published in article PMC10868801, “Characterization of covalent inhibitors that disrupt the interaction between the tandem SH2 domains of SYK and FCER1G phospho-ITAM” (PLOS ONE, 2024).
In brackets after ≈: the same amount, converted by molar mass. Entries after “also recorded” stand apart in the source; their conditions may differ.

Tests used:
[1] = biological target: T1, SYK-tSH2 / FCER1G p-ITAM interaction (Homo sapiens, UniProt P43405); experiment: TR-FRET assay of 6xHis-SYK-tSH2 with FITC-labeled FCER1G p-ITAM peptide; assay type: biochemical
T1 construct: the tSH2 domain of SYK (residues M6-N269) fused to an N-terminal 6×His tag; made in house; host or cells: E. coli BL21(DE3)-R3-pRARE
From the text: To facilitate identification of inhibitors of the SYK-FCER1G interaction, we developed a TR-FRET assay using recombinant protein comprising the tSH2 domain of SYK (residues M6-N269) fused to an N-terminal 6×His tag (S1A Fig). The TR-FRET assay is based on the interaction of a FITC-labeled FCER1G p-ITAM peptide to the 6×His-SYK-tSH2 protein in complex with a terbium-conjugated anti-His antibody (Tb-Ab) (Fig 3B). Once excited, a TR-FRET signal is generated from the Tb donor to the FITC acceptor fluorophore. […] To enable uHTS for large scale screening of small molecule libraries, we miniaturized the TR-FRET assay from 96-well plate format to a 1536-well.
TR-FRET experiments were performed in 20 μL reactions, using 384-well shallow-well microplates (PerkinElmer). Final reaction components contained 6xHis-SYK-tSH2 (SYKA-c020 tagged) (4 nM), FITC-conjugated FCER1G peptide (8 nM), Tb-conjugated anti-6xHis antibody (53 ng/ml; Cisbio) in assay buffer containing 25 mM HEPES (pH 7.5), 200 mM NaCl, 0.1% BSA and 0.05% Tween-20. After a 2h incubation (at room temperature), TR-FRET signals were measured on a BMG Labtech PHERAstar FSX reader using a Lanthascreen Optics Module. A 200 μs delay was used after excitation with a flash lamp before measurement of fluorescence emission at […]. TR-FRET ratios of fluorescent intensity at 520 nm to 490 nm were calculated. The half maximal inhibitory concentration (IC50) was determined by fitting a four parametric logistic curve to the data.

[2] = test system: SYK-tSH2 domains with a doubly phosphorylated ITAM from a T-cell antigen receptor ζ-chain; design: method as in PMID 25287889; conditions: cited from earlier work
[3] = test system: SYK-tSH2; design: method as in PMID 25287889; conditions: mass spectrometry; cited from earlier work
[4] = biological target: T2, SYK-tSH2 (Homo sapiens, UniProt P43405); experiment: Covalent labelling and intact mass spectrometry; assay type: binding; design: tandem SH2 domains of human SYK (residues M6-N269); 6xHis (N, cleaved yes); made in house; host or cells: E. coli BL21(DE3)-R3-pRARE; conditions: for Number of mass adducts on SYK-tSH2 / Covalent modification of SYK-tSH2: 100 μM
From the text: The HTS hits 13 and 37 contain a kojic acid moiety, which is proposed to react covalently with proteins in the literature. As a result, we thought that it was likely these compounds are also reacting covalently with SYK-tSH2. […] When bound to the protein, these kojic acid-derived compounds have a 94 Da decrease in mass due to the loss of the pyridin-2-amine leaving group to reveal a Michael acceptor that can react covalently with cysteine residues (Fig 5B).
To expand on the initial 40 putative hits that were identified via uHTS (Fig 3D), additional commercially available structural analogues were ordered and screened via TR-FRET and differential scanning fluorimetry (DSF) (S1 Table). […] The observation of a substantial reduction in protein melting temperature motivated us to determine if the compounds interacted covalently with the SYK-tSH2 domains. Additionally, since the thiourea in these small molecules is reported to react via oxidation, the compounds could be capable of forming a covalent disulfide bond with cysteine residues on SYK [39]. We used compound 1, which is a known covalent modifier of SYK-tSH2, as a positive control in the mass spectrometry analysis. […] Literature reports support that this type of chemical reaction can occur in DMSO, forming a disulfide bond. […] Like we had originally observed for the older DMSO stock solution of 42 (Fig 6C), 44 forms two to four mass adducts (422 Da and 844 Da) more than the protein mass when incubated SYK-tSH2 for 1 h (Fig 6D). […] Due to the mass adducts of two to four (422 Da and 844 Da), we propose that 44 is forming a disulfide bond with between two or four cysteines on SYK-tSH2 (Fig 6G).

[5] = biological target: T3, full length SYK and FCER1G (Homo sapiens, UniProt P43405); experiment: GST pull-down (GST-PD) of GST-SYK and FCER1G-Flag from HEK293T cell lysates; assay type: biochemical; conditions: for PPI disruption in GST-PD: dose-response format
T3 construct: full length GST-SYK and FCER1G-Flag were co-expressed in HEK293 cells prior to lysis; expressed in transfected cells; host or cells: HEK293T (CRL-3216, ATCC)
Experimental: Pull-down assays were used as an orthogonal assay to determine if the compounds could disrupt the PPI between full length SYK and FCER1G proteins from cell lysates. To optimize GST pulldown assays, full length GST-SYK and FCER1G-Flag were co-expressed in HEK293 cells prior to lysis and the protein expression and cell lysate concentrations tested (Fig 4A). All 40 compounds that progressed from uHTS were tested via GST-PD at a single concentration (100 μM) to determine if they could inhibit the PPI between the full-length proteins, with the p-ITAM FCER1G peptide used as a positive control (Fig 4B). […] Compound 24 contains a promiscuous maleimide, which is well known to react indiscriminately with proteins.
GST-, VF-tagged human SYK and FCER1G plasmids for mammalian expression were generated using Gateway cloning technology (Invitrogen) as described previously. The DNA was purified using ZymoPURE Plasmid Maxiprep Kit (D4203, Zymo Research).
WB secondary antibodies: peroxidase-conjugated AffiniPure Goat Anti-Mouse IgG (H+L) (115-035-003, Jackson Immuno Research) 1:5000 dilution in TBST. GST pulldown was performed as described with minor changes. HEK293T (CRL-3216, ATCC) were cultured in Dulbecco’s modified Eagle’s medium with 4.5 g/L glucose, L-glutamine, and sodium pyruvate (10–013-CV, Corning) supplemented with 10% fetal bovine serum and 1% penicillin/streptomycin solution (30–002-CI, CellGro). Cells were incubated at 37°C in humidified conditions with 5% CO2. The HEK293T cells were transfected using 1 mg/mL Polyethylenimine (PEI; 23966, Polysciences) in a ratio of 3 μL to 1 μg DNA. The proteins were expressed for 48 h at 37°C. Cell pellets were re-suspended in the SYK lysis buffer (25 mM HEPES, pH 7.5, 200 mM NaCl, 0.5% Triton X100 (T9284-1L, Sigma-Aldrich), followed by sonication for 10 s (5 s on, 5 s off) at 4°C. Cells were pelleted by 10 min centrifugation at 13,000 rpm at 4°C. The cleared lysates were first pre-incubated with compounds for 30 min and then incubated with glutathione sepharose 4B beads (17075605, Cytiva Sweden AB) at 4°C for 2 h with rotation. After the incubation, beads were washed three times with the SYK lysis buffer, eluted by boiling in sodium dodecyl sulfate-polyacrylamide gel electrophoresis (SDS–PAGE) loading buffer (1610737, Bio-Rad), and analyzed by western blotting.

[6] = Compound solubility with nephelometer; assay type: physicochemical; conditions: aqueous buffer, kinetic from dmso stock, PBS, 90 min at room temperature
Experimental: Stock compound (10 mM in DMSO) was serial diluted in PBS (21-040-CV, Corning) in 96-well Costar Assay plate (3904, Corning). After incubating compound in PBS for 90 min at room temperature, the Nephelometric turbidity units (NTUs) were measured with NEPHELOstar (BMG LABTECH, Cary, North Carolina). 0.2 s was used for a measure time and PBS only as the background. Each sample was tested in triplicate. Dose-response data was analyzed by GraphPad Prism and the solubility concentration is defined at the concentration that increases the NTUs at the turning point of the curve.

[7] = biological target: MSN (Homo sapiens, UniProt P26038); experiment: Covalent labelling and intact mass spectrometry (selectivity); conditions: 1 h, room temperature; for Number of mass adducts on MSN: 100 μM, four available cysteines
Sequence of MSN (P26038 whole entry, species assumed): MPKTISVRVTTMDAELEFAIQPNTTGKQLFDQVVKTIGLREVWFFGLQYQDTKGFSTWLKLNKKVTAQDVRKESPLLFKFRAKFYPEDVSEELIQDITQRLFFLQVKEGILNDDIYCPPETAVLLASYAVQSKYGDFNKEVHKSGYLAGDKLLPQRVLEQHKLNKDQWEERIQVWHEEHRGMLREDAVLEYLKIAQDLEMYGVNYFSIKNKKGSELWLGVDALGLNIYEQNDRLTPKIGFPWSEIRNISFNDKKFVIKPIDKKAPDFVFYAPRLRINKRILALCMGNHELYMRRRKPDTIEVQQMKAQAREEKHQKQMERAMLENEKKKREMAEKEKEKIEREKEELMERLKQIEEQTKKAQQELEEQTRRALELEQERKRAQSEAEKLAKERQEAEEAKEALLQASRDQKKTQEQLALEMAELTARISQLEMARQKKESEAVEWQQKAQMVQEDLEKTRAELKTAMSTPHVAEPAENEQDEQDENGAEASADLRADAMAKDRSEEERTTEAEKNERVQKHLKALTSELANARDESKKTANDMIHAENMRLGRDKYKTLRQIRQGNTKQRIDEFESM

[8] = Kinetic solubility (Analiza, Inc., CLND); assay type: physicochemical; conditions: phosphate buffered saline, aqueous buffer, kinetic from dmso stock, PBS pH 7.4, 24 h incubation, by Analiza
Experimental: Following 24 h incubation in a Millipore solubility filter plate, samples were vacuum filtered, and the filtrates collected for analysis. Filtrates were injected into the nitrogen detector for quantification via total chemiluminescent nitrogen determination (CLND). Filtrates were quantified with respect to a calibration curve generated using standards that span the dynamic range of the instrument. The reported solubility value has been corrected for background nitrogen present in the media and DMSO.

[9] = LCMS characterization of fresh versus older DMSO stocks; assay type: physicochemical; conditions: older DMSO stocks versus freshly prepared solutions
From the text: To expand on the initial 40 putative hits that were identified via uHTS (Fig 3D), additional commercially available structural analogues were ordered and screened via TR-FRET and differential scanning fluorimetry (DSF) (S1 Table). […] The observation of a substantial reduction in protein melting temperature motivated us to determine if the compounds interacted covalently with the SYK-tSH2 domains. Additionally, since the thiourea in these small molecules is reported to react via oxidation, the compounds could be capable of forming a covalent disulfide bond with cysteine residues on SYK [39]. We used compound 1, which is a known covalent modifier of SYK-tSH2, as a positive control in the mass spectrometry analysis. […] Literature reports support that this type of chemical reaction can occur in DMSO, forming a disulfide bond. […]
Supplementary file pone.0293548.s005.tiff: S4 Fig Identification of active disulfide compounds which form in DMSO solutions of compounds 42 and 43. […] LCMS Calculated for [M+H]^+ C7H9N4O2S: 213.04; observed: 213.1 [M+H]^+. […] LCMS Calculated for [M+H]^+ C14H15N8O4S2: 423.06; observed: 423.0 [M+H]^+. […] LCMS Calculated for [M+H]^+ C10H15N4O2S: 255.08; observed: 255.1 [M+H]^+. […] LCMS Calculated for [M+H]^+ C20H27N8O4S2: 507.15; observed: 507.1 [M+H]^+. […]

[10] = biological target: T2, SYK-tSH2; experiment: Bio-layer interferometry (BLI) direct binding; conditions: BLI KD, biotinylated SYK-tSH2

O=[N+]([O-])c1c(NCCO)cc(Cl)c2nonc12 [compound 1]
Interference with the TR-FRET assay [1]: quenching the TR-FRET donor signal
Inhibition of p-ITAM binding with mutated SYK-tSH2 ([2]; Cys206 mutated to serine or alanine): complete loss of inhibition
Disruption of SYK-tSH2 binding to doubly phosphorylated ITAM ([2]; fluorescence polarization inhibition assay): disrupt the binding
Number of cysteines on SYK-tSH2 bound [3]: 4
Number of mass adducts on SYK-tSH2 ([4]; 1 h, room temperature): one or two

O=c1cc(CO)oc(C(Nc2ccccn2)c2ccc3c(c2)OCO3)c1O (stereo not shown) [compound 37]
PPI disruption in GST-PD [5]: confirmed to disrupt the PPI
Inhibition of SYK-GST / FCER1G-Flag interaction in pulldown ([5]; single concentration (100 μM)): able to inhibit the interaction
solubility at 90 min [6]: 100 µM (≈ 36.8 µg/mL)
Number of mass adducts on MSN [7]: one weak mass adduct
Number of mass adducts on SYK-tSH2 ([4]; 1 h, room temperature): between two and seven

Cn1c(=O)c2[nH]c(=S)[nH]c2n(C)c1=O [compound 42, 1,3-dimethyl-8-thioxo-3,7,8,9-tetrahydro-1H-purine-2,6-dione]
IC50 [1]: 1.9 ± 0.2 µM
solubility kinetic at 24 h [8]: 208 µM (≈ 44.1 µg/mL)
Stability in DMSO stock solution [9]: had formed corresponding disulfide dimers in DMSO over time
Kd [10]: 99 ± 0.8 µM
Covalent modification of SYK-tSH2 ([4]; 1 h, freshly prepared DMSO stock): did not form a covalent adduct
Number of mass adducts on SYK-tSH2 ([4]; 1 h, older DMSO stock solution): two
Covalent modification of SYK-tSH2 ([4]; 1 h, older DMSO stock solutions): covalently modifies SYK-tSH2

Cn1c(=O)c2[nH]c(SSc3nc4c([nH]3)c(=O)n(C)c(=O)n4C)nc2n(C)c1=O [compound 44, 8,8’-disulfanediylbis(1,3-dimethyl-3,7-dihydro-1H-purine-2,6-dione)]
PPI disruption in GST-PD [5]: disrupted the PPI; also recorded: able to disrupt the full-length interaction
solubility kinetic at 24 h [8]: 70.9 µM (≈ 30 µg/mL)
melting point: > 300 °C
Mass adducts on MSN ([7]; 30 μM): same formation of mass adducts as 100 μM incubation
Number of mass adducts on MSN [7]: two mass adducts
Compound concentration giving 50% labeling of SYK-tSH2 ([4]; 10 μM SYK-tSH2, dose-response by mass spectrometry): 30 µM
Mass adducts on SYK ([4]; 30 μM, 1 h, room temperature): same formation of mass adducts as 100 μM incubation
Number of mass adducts on SYK-tSH2 ([4]; 1 h, room temperature): two to four
